Results from US11066482B2, “Specific plasmin inactivation by anticatalytic antibody” (priority 2017, dated 2021).
Values belong to the molecule of their own block, whether it stands above or below them.

What was measured:
[1] = test system: plasmin-mediated fibrinolysis of human fibrin clots; assay: Fibrinolysis of 125I-fibrin human plasma clots with tPA, EACA vs Pi; type: biochemical; details: tPA 5 nM, 2.5 h
fibrinolytic bleeding = assay: Fibrinolytic bleeding assay in vivo (humanized tail bleeding model); set-up: species or system mice; details: EACA 510 micromole/kg intravenously
Description: Anesthetized mice were treated in a randomized, blinded fashion with saline (Control), Pi (100 nmole/kg) or EACA (510 micromole/kg) intravenously. Human plasminogen (100 nmole/kg) and plasminogen activator (80,000 IU/kg) were given over 60 min. Tail bleeding was initiated 40 min. after the infusion. Tails were pre-warmed for 5 mins in 3 mL of 37° C. saline and bleeding was monitored as described.36,37 N=5-6, Means±SE are shown. *p<0.05, **p<0.01; ns, not significant. Kruskal Wallis one way ANOVA, Dunn's corrections.
Fibrinolytic bleeding assays in vivo. Anesthetized mice were treated in a randomized, blinded fashion with saline (Control), Pi (100 nmole/kg) or EACA (510 micromole/kg). Human plasminogen (100 nmole/kg) and plasminogen activator (80,000 IU/kg) were given over 60 min. Tail bleeding started 40 min. after the infusion. Tails were pre-warmed for 5 mins in 3 mL of 37° C. saline as described.(27, 28).
Suppression of fibrinolytic bleeding in vivo. The potential utility of the Pi for suppression of fibrinolytic bleeding was examined in vivo in randomized, blinded studies of surgical arterial and venous hemorrhage.

[2] = molecular target: plasmin-mediated cleavage of factor V (Homo sapiens, UniProt P00747); assay: Factor V cleavage by plasmin, SDS-PAGE; type: biochemical; details: EACA 1 mM or Pi 5 ug, 1 hr RT
Sequence of plasmin-mediated cleavage of factor V (P00747 97-580 limits assumed): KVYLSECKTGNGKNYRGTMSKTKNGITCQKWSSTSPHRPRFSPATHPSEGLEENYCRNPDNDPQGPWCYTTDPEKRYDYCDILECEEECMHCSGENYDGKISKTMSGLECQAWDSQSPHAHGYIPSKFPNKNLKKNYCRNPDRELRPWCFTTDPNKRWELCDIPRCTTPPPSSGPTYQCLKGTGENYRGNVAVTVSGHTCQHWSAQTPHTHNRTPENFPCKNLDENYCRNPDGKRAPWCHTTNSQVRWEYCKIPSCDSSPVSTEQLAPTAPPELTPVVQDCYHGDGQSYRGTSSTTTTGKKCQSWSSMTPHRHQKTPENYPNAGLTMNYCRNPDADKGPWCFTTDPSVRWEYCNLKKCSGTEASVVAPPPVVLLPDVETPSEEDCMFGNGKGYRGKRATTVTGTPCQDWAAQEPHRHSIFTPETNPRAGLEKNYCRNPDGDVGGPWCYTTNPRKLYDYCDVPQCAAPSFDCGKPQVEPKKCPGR
Sequence of plasmin-mediated cleavage of factor V (P00747 581-810 limits assumed): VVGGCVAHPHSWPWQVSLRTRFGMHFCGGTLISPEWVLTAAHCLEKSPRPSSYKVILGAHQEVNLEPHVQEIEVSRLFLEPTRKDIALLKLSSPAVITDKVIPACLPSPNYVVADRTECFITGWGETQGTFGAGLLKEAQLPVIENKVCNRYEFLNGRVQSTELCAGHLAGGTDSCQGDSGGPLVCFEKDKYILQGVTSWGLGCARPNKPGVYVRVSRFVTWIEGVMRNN
Description: FIGS. 4A-4D show comparative inhibition of factor V cleavage and human clot fibrinolysis (dissolution) by Pi, EACA and a2AP. […] The relative migration of molecular weight standards is shown (kDa). […] Human plasma was clotted with CaCl2 (10 mM) and thrombin (1 U/ml) in the presence of trace amounts of 1251 fibrinogen for 1 h at 37 deg. C. After washing in 1 ml of TBS pH 7.4, tPA (5 nM) was added in the presence of various amounts of Pi (62.5 to 1000 nM), EACA (0.125 mM to 2 mM) or no inhibitor. After 2.5 h the amount of fibrinolysis was determined by measuring the amount of 125I-fibrin dissolved in the supernatant. Means of duplicate observations are shown. […] Clots were formed as above in the presence of human plasminogen (2 uM) and a2AP (1 uM) or Pi (1 uM) and various amounts of tPA (0-10 nM). Clot dissolution was monitored in duplicate over 2 h in microtiter plate wells at A405 nm. […] Human plasma clots were mixed with various concentrations of Pi IgG, Pi Fab and chimeric Pi Fab (25 nM-400 nM) and plasmin was activated by urokinase. The amount of clot lysis was determined as described in Methods.
Factor V cleavage. Human factor V (2 ug, IHFV, Innovative Research) was mixed with plasmin (0.05 ug) for 1 hr at RT in the presence of EACA (1 mM), Pi (5 ug) or a control monoclonal antibody (digoxin, 5 ug). […] Protein bands were detected by staining with Coomassie blue dye.

[3] = in vivo; cited from earlier work
human plasma clots = assay: Clot lysis assay of Pi IgG, Fab and chimeric Fab, urokinase; type: biochemical; details: 25 nM-400 nM, 30 min
Description: FIGS. 4A-4D show comparative inhibition of factor V cleavage and human clot fibrinolysis (dissolution) by Pi, EACA and a2AP. […] The relative migration of molecular weight standards is shown (kDa). […] Human plasma was clotted with CaCl2 (10 mM) and thrombin (1 U/ml) in the presence of trace amounts of 1251 fibrinogen for 1 h at 37 deg. C. After washing in 1 ml of TBS pH 7.4, tPA (5 nM) was added in the presence of various amounts of Pi (62.5 to 1000 nM), EACA (0.125 mM to 2 mM) or no inhibitor. After 2.5 h the amount of fibrinolysis was determined by measuring the amount of 125I-fibrin dissolved in the supernatant. Means of duplicate observations are shown. […] Clots were formed as above in the presence of human plasminogen (2 uM) and a2AP (1 uM) or Pi (1 uM) and various amounts of tPA (0-10 nM). Clot dissolution was monitored in duplicate over 2 h in microtiter plate wells at A405 nm. […] The amount of clot lysis was determined as described in Methods.
The effects of Pi IgG, Fab or chimeric Fab were also compared in a clot lysis assay in microtiter plates. […] C. was monitored at 405 nm. The percent clot dissolution at 30 min. was determined as the percent change in peak turbidity from baseline=100%×(peak absorbance−30 min. absorbance)/(peak absorbance−baseline absorbance).

Plasmin = Plasmin (Homo sapiens, UniProt P00747); assay: Effect of mouse or chimeric Fab on plasmin activity, S2251; type: biochemical; details: plasmin 25 nM, Fab 0-200 nM, S2251 0.5 mM
Sequence of Plasmin (P00747 97-580 limits assumed): as the sequence (P00747 97-580 limits assumed) above
Sequence of Plasmin (P00747 581-810 limits assumed): as the sequence (P00747 581-810 limits assumed) above
Description: FIGS. 2A-2D show comparative inhibition of plasmin activity by Pi EACA and a2AP. […] The percent residual activity of plasmin as a function of the log concentration of inhibitor is shown. […] Human plasmin (100 nM, Hematologic Technologies, Inc.) was mixed with or without Pi (50 nM) in the presence of the substrate S2251 (0.1 to 4 mM). The initial rate of substrate cleavage (6 min.) was monitored at A405. Data were plotted and analyzed using Michaelis-Menten kinetics by the Graphpad Prism Program. Means (duplicate observations) are shown and are representative of 4 separate experiments. […] The means of duplicate observations are shown. […] Plasmin (25 nM) was mixed with various concentrations (0-200 nM) of mouse Fab or chimeric Fab (cFab) and S2251 (0.5 mM) in TBS buffer pH 7.4. Plasmin activity was measured by the release of paranitroanilide product at A405 over time.
The effects of mouse or chimeric Fab on plasmin activity were examined. Plasmin (25 nM) was mixed with various concentrations (0-200 nM) of mouse Fab or chimeric Fab (cFab) and S2251 (0.5 mM) in TBS buffer pH 7.4. Plasmin activity was measured by the release of paranitroanilide product at A405 over time.

effect on Factor V cleavage by plasmin [2]: slightly diminished Factor V cleavage
Molecule: NCCCCCC(=O)O [EACA, epsilon amino caproic acid, reference compound]
fold less potent than the Pi in suppressing fibrinolysis [1]: approximately 5,000 fold
effect on fibrinolysis of human fibrin clots ([1]; Pi 62.5 to 1000 nM, EACA 0.125 mM to 2 mM): diminished fibrinolysis
effect on bleeding time vs saline (fibrinolytic bleeding): did not reduce bleeding time or blood loss
effect on blood loss vs saline (fibrinolytic bleeding): did not reduce bleeding time or blood loss

Molecule: NC[C@H]1CC[C@H](C(=O)O)CC1 [Tranexamic acid, tranexamic acid]
excreted via the urine unchanged [3]: 95%

inhibition of clot lysis by Pi molecular forms (human plasma clots): effectively inhibited clot lysis
inhibition of plasmin activity with tripeptide substrate (Plasmin): potently inhibited plasmin activity
B1: mouse Fab: Fab fragment of the Pi lacking the Fc domain (antibody, V domains shown)
VH: EVKLLESGGGLVQPGGSLKLSCAASGFDFSRYWMSWVRQAPGKGLEWIGEINPDSSTINYTPSLKDKFIISRDNAKNSLYLQMSKVRSEDTALYYCASYCGYSYDALDCWGQGTSVTVSS
VL: DIQMTQSPSSLSASLGGKVSITCKASQDINKYISWYQHKPGKGPRLLIHYTSTLQPGIPSRFSGSGSGRDYSFSISNLEPEDIATYYCLQYDNLYTFGGGTKLEIK
